Measured values from patent publication US12545639B2, “3-substituted phenylamidine compounds, preparation and use thereof” (PI INDUSTRIES LTD., priority 2019, dated 2026).

Assays:
Alternaria solani = Alternaria solani (early blight of tomato/potato) in vitro test, radial growth on potato dextrose agar; type: cell-based; conditions: 168 h, 300 ppm in potato dextrose agar, 25° C., 60% relative humidity, seven days, read-out: control compared to the untreated check (radial growth)
Botrytis cinerea = Botrytis cinerea (gray mold) in vitro test, radial growth on potato dextrose agar; type: cell-based; conditions: 168 h, 300 ppm in potato dextrose agar, 22° C., 90% relative humidity, seven days, read-out: control compared to the untreated check (radial growth)
Pyricularia oryzae = assay: microbe, parasite or virus in culture; type: cell-based; conditions: 168 h, read-out: control compared to the untreated check (radial growth)
Rhizoctonia solani = Rhizoctonia solani (rice sheath blight/potato black scurf) in vitro test, radial growth on potato dextrose agar; type: cell-based; conditions: 168 h, 300 ppm in potato dextrose agar, 25° C., 60% relative humidity, seven days, read-out: control compared to the untreated check (radial growth)
Phakopsora pachyrhizi = Phakopsora pachyrhizi test in soybean, preventive, in vivo on plants; conditions: in Glycine max, read-out: Efficacy (% control), disease severity compared to the untreated check

CCN(C)C=Nc1cc(C)cc(N(C)c2cccc(C(C)C)c2)c1Cl [Compound 63, N′-(2-chloro-3-((3-isopropylphenyl)(methyl)amino)-5-methylphenyl)-N-ethyl-N-methylformimidamide]
≥ 70%: inhibition of growth at 300 ppm (Alternaria solani) | inhibition of growth at 300 ppm (Botrytis cinerea)

CCN(C)C=Nc1cc(Cl)cc(Cc2ccccc2OC(F)(F)F)c1C [Compound 247, N′-(5-chloro-2-methyl-3-(2-(trifluoromethoxy)benzyl)phenyl)-N-ethyl-N-methylformimidamide]
≥ 70%: inhibition of growth at 300 ppm (Alternaria solani) | inhibition of growth at 300 ppm (Pyricularia oryzae) | inhibition of growth at 300 ppm (Rhizoctonia solani) | inhibition of growth at 300 ppm (Botrytis cinerea)

CCN(C)C=Nc1cc(F)cc(Nc2cccc(C)c2F)c1C [Compound 122, N-ethyl-N′-(5-fluoro-3-((2-fluoro-3-methylphenyl)amino)-2-methylphenyl)-N-methylformimidamide]
≥ 70%: inhibition of growth at 300 ppm (Pyricularia oryzae) | inhibition of growth at 300 ppm (Botrytis cinerea) | pest or weed control at 500 ppm (Phakopsora pachyrhizi)

CCN(C)C=Nc1cc(F)cc(NCc2ccc(F)c(C)c2)c1C [Compound 182, N-ethyl-N′-(5-fluoro-3-((4-fluoro-3-methylbenzyl)amino)-2-methylphenyl)-N-methylformimidamide]
≥ 70%: inhibition of growth at 300 ppm (Alternaria solani) | inhibition of growth at 300 ppm (Pyricularia oryzae) | inhibition of growth at 300 ppm (Rhizoctonia solani) | inhibition of growth at 300 ppm (Botrytis cinerea) | pest or weed control at 500 ppm (Phakopsora pachyrhizi)

CCN(C)C=Nc1cc(F)cc(Cc2ccc(F)cc2Br)c1C [Compound 230, N′-(3-(2-bromo-4-fluorobenzyl)-5-fluoro-2-methylphenyl)-N-ethyl-N-methylformimidamide]
≥ 70%: inhibition of growth at 300 ppm (Alternaria solani) | inhibition of growth at 300 ppm (Pyricularia oryzae) | inhibition of growth at 300 ppm (Rhizoctonia solani) | inhibition of growth at 300 ppm (Botrytis cinerea) | pest or weed control at 500 ppm (Phakopsora pachyrhizi)

CCN(C)C=Nc1cc(Cl)cc(Nc2ccccc2C)c1C [Compound 185, N′-(5-chloro-2-methyl-3-(o-tolylamino)phenyl)-N-ethyl-N-methylformimidamide]
≥ 70%: inhibition of growth at 300 ppm (Alternaria solani) | inhibition of growth at 300 ppm (Pyricularia oryzae) | inhibition of growth at 300 ppm (Rhizoctonia solani) | inhibition of growth at 300 ppm (Botrytis cinerea) | pest or weed control at 500 ppm (Phakopsora pachyrhizi)

CCN(C)C=Nc1cc(C)cc(N(C)c2ccc(F)c(F)c2)c1Cl [Compound 81, N′-(2-chloro-3-((3,4-difluorophenyl)(methyl)amino)-5-methylphenyl)-N-ethyl-N-methylformimidamide]
≥ 70%: inhibition of growth at 300 ppm (Alternaria solani) | inhibition of growth at 300 ppm (Botrytis cinerea) | pest or weed control at 500 ppm (Phakopsora pachyrhizi)

CCN(C)C=Nc1cc(F)cc(Cc2cccc(C#N)c2)c1C [Compound 174, N′-(3-(3-cyanobenzyl)-5-fluoro-2-methylphenyl)-N-ethyl-N-methylformimidamide]
≥ 70%: inhibition of growth at 300 ppm (Alternaria solani) | inhibition of growth at 300 ppm (Pyricularia oryzae) | inhibition of growth at 300 ppm (Rhizoctonia solani) | inhibition of growth at 300 ppm (Botrytis cinerea)

CCN(C)C=Nc1cc(C)cc(Cc2cc(F)ccc2C)c1Cl [Compound 57, N′-(2-chloro-3-(5-fluoro-2-methylbenzyl)-5-methylphenyl)-N-ethyl-N-methylformimidamide]
≥ 70%: inhibition of growth at 300 ppm (Alternaria solani) | inhibition of growth at 300 ppm (Pyricularia oryzae) | inhibition of growth at 300 ppm (Botrytis cinerea) | pest or weed control at 500 ppm (Phakopsora pachyrhizi)

CCN(C)C=Nc1cc(F)cc(Cc2ccc(OC(F)(F)F)cc2)c1C [Compound 176, N-ethyl-N′-(5-fluoro-2-methyl-3-(4-(trifluoromethoxy)benzyl)phenyl)-N-methylformimidamide]
≥ 70%: inhibition of growth at 300 ppm (Alternaria solani) | inhibition of growth at 300 ppm (Pyricularia oryzae) | inhibition of growth at 300 ppm (Rhizoctonia solani) | inhibition of growth at 300 ppm (Botrytis cinerea)

CCN(C)C=Nc1cc(C#N)cc(Cc2ccc(F)cc2)c1C [Compound 310, N′-(5-cyano-3-(4-fluorobenzyl)-2-methylphenyl)-N-ethyl-N-methylformimidamide]
≥ 70%: inhibition of growth at 300 ppm (Alternaria solani) | inhibition of growth at 300 ppm (Pyricularia oryzae) | inhibition of growth at 300 ppm (Botrytis cinerea)

CCN(C)C=Nc1cc(Cl)cc(N(C)c2cccc(C)c2)c1C [Compound 160, N′-(5-chloro-2-methyl-3-(methyl(m-tolyl)amino)phenyl)-N-ethyl-N-methylformimidamide]
≥ 70%: inhibition of growth at 300 ppm (Alternaria solani) | inhibition of growth at 300 ppm (Pyricularia oryzae) | inhibition of growth at 300 ppm (Botrytis cinerea) | pest or weed control at 500 ppm (Phakopsora pachyrhizi)

CCN(C)C=Nc1cc(C)cc(N(C)c2cc(Cl)ccc2C)c1Cl [Compound 110, N′-(2-chloro-3-((5-chloro-2-methylphenyl)(methyl)amino)-5-methylphenyl)-N-ethyl-N-methylformimidamide]
≥ 70%: inhibition of growth at 300 ppm (Alternaria solani) | inhibition of growth at 300 ppm (Botrytis cinerea)

CCN(C)C=Nc1cc(F)cc(Cc2cccc(OC(F)(F)F)c2)c1C [Compound 173, N-ethyl-N′-(5-fluoro-2-methyl-3-(3-(trifluoromethoxy)benzyl)phenyl)-N-methylformimidamide]
≥ 70%: inhibition of growth at 300 ppm (Alternaria solani) | inhibition of growth at 300 ppm (Pyricularia oryzae) | inhibition of growth at 300 ppm (Rhizoctonia solani) | inhibition of growth at 300 ppm (Botrytis cinerea)

CCN(C)C=Nc1cc(F)cc(N(C)c2cccc(F)c2)c1C [Compound 32, N-ethyl-N′-(5-fluoro-3-((3-fluorophenyl)(methyl)amino)-2-methylphenyl)-N-methylformimidamide]
≥ 70%: inhibition of growth at 300 ppm (Alternaria solani) | inhibition of growth at 300 ppm (Pyricularia oryzae) | inhibition of growth at 300 ppm (Botrytis cinerea) | pest or weed control at 500 ppm (Phakopsora pachyrhizi)

CCN(C)C=Nc1cc(C#N)cc(Cc2ccc(Cl)cc2)c1C [Compound 311, N′-(3-(4-chlorobenzyl)-5-cyano-2-methylphenyl)-N-ethyl-N-methylformimidamide]
≥ 70%: inhibition of growth at 300 ppm (Pyricularia oryzae) | inhibition of growth at 300 ppm (Rhizoctonia solani) | inhibition of growth at 300 ppm (Botrytis cinerea)

CCN(C)C=Nc1cc(F)cc(N(C)c2cccc(Cl)c2)c1C [Compound 33, N′-(3-((3-chlorophenyl)(methyl)amino)-5-fluoro-2-methylphenyl)-N-ethyl-N-methylformimidamide]
≥ 70%: inhibition of growth at 300 ppm (Alternaria solani) | inhibition of growth at 300 ppm (Pyricularia oryzae) | inhibition of growth at 300 ppm (Botrytis cinerea) | pest or weed control at 500 ppm (Phakopsora pachyrhizi)

CCN(C)C=Nc1cc(F)cc(Nc2ccccc2)c1C [Compound 8, N-ethyl-N′-(5-fluoro-2-methyl-3-(phenylamino)phenyl)-N-methylformimidamide]
≥ 70%: inhibition of growth at 300 ppm (Alternaria solani) | inhibition of growth at 300 ppm (Pyricularia oryzae) | inhibition of growth at 300 ppm (Botrytis cinerea)

CCN(C)C=Nc1cc(F)cc(Cc2ccccc2OC(F)(F)F)c1C [Compound 170, N-ethyl-N′-(5-fluoro-2-methyl-3-(2-(trifluoromethoxy)benzyl)phenyl)-N-methylformimidamide]
≥ 70%: inhibition of growth at 300 ppm (Alternaria solani) | inhibition of growth at 300 ppm (Pyricularia oryzae) | inhibition of growth at 300 ppm (Rhizoctonia solani) | inhibition of growth at 300 ppm (Botrytis cinerea)

CCN(C)C=Nc1cc(OC)cc(Cc2ccccc2)c1C [Compound 298, N′-(3-benzyl-5-methoxy-2-methylphenyl)-N-ethyl-N-methylformimidamide]
≥ 70%: inhibition of growth at 300 ppm (Alternaria solani) | inhibition of growth at 300 ppm (Pyricularia oryzae) | inhibition of growth at 300 ppm (Rhizoctonia solani) | pest or weed control at 500 ppm (Phakopsora pachyrhizi)

CCN(C)C=Nc1cc(Cl)cc(Cc2ccccc2C#N)c1C [Compound 104, N′-(5-chloro-3-(2-cyanobenzyl)-2-methylphenyl)-N-ethyl-N-methylformimidamide]
≥ 70%: inhibition of growth at 300 ppm (Alternaria solani) | inhibition of growth at 300 ppm (Pyricularia oryzae) | inhibition of growth at 300 ppm (Rhizoctonia solani) | pest or weed control at 500 ppm (Phakopsora pachyrhizi)

CCN(C)C=Nc1cc(Cl)cc(N(C)c2cccc(F)c2)c1C [Compound 179, N′-(5-chloro-3-((3-fluorophenyl)(methyl)amino)-2-methylphenyl)-N-ethyl-N-methylformimidamide]
≥ 70%: inhibition of growth at 300 ppm (Alternaria solani) | inhibition of growth at 300 ppm (Pyricularia oryzae) | inhibition of growth at 300 ppm (Botrytis cinerea) | pest or weed control at 500 ppm (Phakopsora pachyrhizi)

CCN(C)C=Nc1cc(C)cc(N(C)c2ccc(F)c(OC)c2)c1Cl [Compound 288, N′-(2-chloro-3-((4-fluoro-3-methoxyphenyl)(methyl)amino)-5-methylphenyl)-N-ethyl-N-methylformimidamide]
≥ 70%: inhibition of growth at 300 ppm (Alternaria solani) | inhibition of growth at 300 ppm (Pyricularia oryzae) | inhibition of growth at 300 ppm (Botrytis cinerea)

CCN(C)C=Nc1cc(C)cc(Nc2ccc(Cl)cc2F)c1Cl [Compound 134, N′-(2-chloro-3-((4-chloro-2-fluorophenyl)amino)-5-methylphenyl)-N-ethyl-N-methylformimidamide]
≥ 70%: inhibition of growth at 300 ppm (Pyricularia oryzae) | inhibition of growth at 300 ppm (Rhizoctonia solani) | inhibition of growth at 300 ppm (Botrytis cinerea) | pest or weed control at 500 ppm (Phakopsora pachyrhizi)

CCN(C)C=Nc1cc(Cl)cc(Nc2ccc3ncsc3c2)c1C [Compound 242, N′-(3-(benzo[d]thiazol-6-ylamino)-5-chloro-2-methylphenyl)-N-ethyl-N-methylformimidamide]
≥ 70%: inhibition of growth at 300 ppm (Alternaria solani) | inhibition of growth at 300 ppm (Pyricularia oryzae) | inhibition of growth at 300 ppm (Rhizoctonia solani) | pest or weed control at 500 ppm (Phakopsora pachyrhizi)

CCN(C)C=Nc1cc(F)cc(N(C)c2cc(F)cc(Cl)c2)c1C [Compound 106, N′-(3-((3-chloro-5-fluorophenyl)(methyl)amino)-5-fluoro-2-methylphenyl)-N-ethyl-N-methylformimidamide]
≥ 70%: inhibition of growth at 300 ppm (Alternaria solani) | inhibition of growth at 300 ppm (Botrytis cinerea)

CCN(C)C=Nc1cc(F)cc(Cc2ccc(Br)cc2)c1C [Compound 175, N′-(3-(4-bromobenzyl)-5-fluoro-2-methylphenyl)-N-ethyl-N-methylformimidamide]
≥ 70%: inhibition of growth at 300 ppm (Alternaria solani) | inhibition of growth at 300 ppm (Pyricularia oryzae) | inhibition of growth at 300 ppm (Rhizoctonia solani) | inhibition of growth at 300 ppm (Botrytis cinerea)

CCN(C)C=Nc1cc(F)cc(N(C)c2ccc(F)c(F)c2)c1C [Compound 83, N′-(3-((3,4-difluorophenyl)(methyl)amino)-5-fluoro-2-methylphenyl)-N-ethyl-N-methylformimidamide]
≥ 70%: inhibition of growth at 300 ppm (Alternaria solani) | inhibition of growth at 300 ppm (Pyricularia oryzae) | inhibition of growth at 300 ppm (Rhizoctonia solani) | inhibition of growth at 300 ppm (Botrytis cinerea)
